Experimental data published in PMC12892976, “Alkylation-based optimization of antifungal FPPS inhibitors yields a potent, broad-spectrum lipophilic zoledronate derivative” (mBio, 2025).
Converted amounts (≈) assume the structure as drawn.

Assays:
Assay in all cases: squalene rescue assay
Type in all cases: cell-based
[1] = tested on: C. albicans SC5314; details: Candida albicans, SC5314, read-out: EC50 (squalene concentration rescuing 50% of growth)
Procedure: (§1) Squalene rescue assays were performed as described previously ([7]). […] After incubation at 35°C for 24 h (C. albicans), 48 h (A. fumigatus), or 72 h (C. neoformans), OD600 was measured in a BioTek ELx800 plate reader.

[2] = tested on: A. fumigatus ATCC 204305; details: Aspergillus fumigatus, ATCC204305, read-out: EC50 (squalene concentration rescuing 50% of growth)
Procedure: as §1

[3] = tested on: C. neoformans H99; details: Cryptococcus neoformans, H99, read-out: EC50 (squalene concentration rescuing 50% of growth)
Procedure: as §1

EC50 [1]: 12.4 µg/mL (≈ 30.3 µM) | EC50 [2]: 23.3 µg/mL (≈ 56.7 µM) | EC50 [3]: 2.98 µg/mL (≈ 7.25 µM)
Compound: CC(C)=CCC/C(C)=C/CC/C(C)=C/CC/C=C(\C)CC/C=C(\C)CCC=C(C)C [squalene]
